In PMC5654082 (Malaria Journal, 2017):
Counter-ions that a name gives are not always drawn. Like-named read-outs stand apart in the source and are kept apart here. Marks after values point to notes of the source that are not given here.

What was measured:
[1] = Maximum plasma concentration from in vivo pharmacokinetic studies after therapeutic dosing; conditions: human, the literature Cmax (ng/mL) of Table 2 expressed in µM
Excerpt: As Cmax the (geometric) mean or median maximum plasma concentrations obtained from previous in vivo pharmacokinetic studies after therapeutic dosing was used.

[2] = Thai children with uncomplicated multidrug-resistant falciparum malaria; (geometric) mean or median; cited from earlier work
[3] = co-administration of EFV; cited from earlier work
[4] = set-up: method as in earlier work; conditions: unchanged PG; cited from earlier work
[5] = target: T1, MATE1 (Homo sapiens, UniProt Q96FL8); assay: Export assay in HEK293 cells co-transduced with OCT1 and MATE1; type: cell-based; set-up: host or cells: HEK293, baculovirus transduction (CMV promoter), transient; co-transduced with human OCT1 in the export assay; conditions: cells expressing OCT1 and MATE1; 1 µM, 1 min, pH 7.4
T1 sequence (Q96FL8 1-570): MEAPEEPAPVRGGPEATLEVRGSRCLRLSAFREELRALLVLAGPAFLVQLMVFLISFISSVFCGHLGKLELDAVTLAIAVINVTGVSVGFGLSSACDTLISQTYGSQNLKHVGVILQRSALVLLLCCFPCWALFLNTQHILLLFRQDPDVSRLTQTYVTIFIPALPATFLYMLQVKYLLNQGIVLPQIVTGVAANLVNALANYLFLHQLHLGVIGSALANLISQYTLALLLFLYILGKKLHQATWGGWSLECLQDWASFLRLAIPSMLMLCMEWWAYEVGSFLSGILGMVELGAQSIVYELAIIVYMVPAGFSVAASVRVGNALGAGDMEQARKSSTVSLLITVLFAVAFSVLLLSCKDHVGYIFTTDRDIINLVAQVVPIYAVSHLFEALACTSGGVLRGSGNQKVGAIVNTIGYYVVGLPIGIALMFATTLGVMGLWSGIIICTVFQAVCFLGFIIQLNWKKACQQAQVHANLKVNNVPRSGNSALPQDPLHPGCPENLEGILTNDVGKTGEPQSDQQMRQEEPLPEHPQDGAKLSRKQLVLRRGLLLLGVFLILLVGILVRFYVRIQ
Protocol: HEK293 cells were modified to transiently express (a combination of) human OCT1, OCT2, MATE1, MATE2-K, or eYFP. Briefly, cDNA of the respective genes was cloned downstream of a CMV promoter into a baculovirus, of which passage three was used to transduce HEK293 cells. These cells were seeded in poly-D-lysine coated 24- or 96-wells plates and grown in a 37 °C incubator at 5% CO2. Growth was initiated at ~ 25% confluency using 375 or 125 μL cell and complete medium (DMEM + GlutaMAX™-I supplemented with 10% fetal bovine serum) suspension per well, respectively. […]
Import and export of PG and cycloguanil (CG) was assessed by single and double transduced HEK293 cells. […] Significant reduction in uptake (i.e. export by MATEs) was determined using ln transformation and a one-way repeated measures ANOVA with Dunnet’s post test.
Anti-malarial concentration in the cell lysates was quantified using an LC–MS/MS system consisting of a UPLC, a binary solvent manager, a vacuum degasser and an autosampler, coupled to a Xevo TQ-S micro triple quadrupole mass spectrometer. […] Positive ion mode was used with selected reaction monitoring (SRM) for the quantitative analysis of AMO, ART, ATO, CQ, CG, DHA, LUM, MQ, PQ, PG, and QN. The peak area of the most abundant product ion was used for quantification.

In the case of `[H]/N=C(\N/C(=N/[H])Nc1ccc(Cl)cc1)NC(C)C` [Proguanil, proguanil hydrochloride], the Cmax [1] is listed as 1.2 µM, the Cmax [2] is listed as 306^d [47] ng/mL and the “Increase of Cmax of PG by EFV” value [3] is listed as 47%. The “Excretion into the urine” value [4] was less than 40% and the “Uptake, percentage of eYFP control cells” value [5] was 780 ± 70%.
